# Assay results as given in US8216595B2 (priority 2007, dated 2012).
# Like-named read-outs stand apart in the source and are kept apart here.
# Key:
# Conditions in all cases: mouse, in vivo
# [1] = tested on: preS antigen; set-up: species or system C57BL/6 female mice
# [2] = tested on: HBsAg (S-protein); set-up: species or system C57BL/6 female mice
# [3] = tested on: HA antigen; set-up: species or system C57BL/6 female mice
# [4] = tested on: HBsAg (S-protein); set-up: species or system C57BL/6 female mice; remark: listed apart in the source
# [5] = tested on: preS antigen; set-up: species or system C57BL/6 female mice; remark: listed apart in the source
# [6] = tested on: HBsAg
Molecule,preS antibody titer [1],IgG2a/IgG1 (%) [2],IgG2b/IgG1 (%) [2],HA antibody titer [3],HBsAg antibody titer [4],preS antibody titer [5],IgG2a/IgG1 (%) [6],IgG2b/IgG1 (%) [6]
"CCCCCCCCCCCCCCCC(=O)N[C@@H](CSC[C@@H](COC(=O)CCCCCCCCCCCCCCC)OC(=O)CCCCCCCCCCCCCCC)C(=O)N[C@@H](CO)C(=O)N[C@@H](CCCCN)C(=O)N[C@@H](CCCCN)C(=O)N[C@@H](CCCCN)C(=O)N[C@@H](CCCCN)C(=O)O (racemic) [Pam3Cys-SKKKK, N-palmitoyl-S-[2,3-bis(palmitoyloxy)-(2RS)-propyl]-[R]-cystein-SKKKK]",6.2 × 10^5,8.9%,153.9%,6.8 × 10^5,6.5 × 10^5,1.3 × 10^5,17.4%,159.4%
FSL-1,,,,,4.4 × 10^5,1.4 × 10^5,9.3%,122.5%
polyinosinic:polycytidylic acid [Poly I:C],6.5 × 10^5,9.1%,66.4%,8.6 × 10^5,6.3 × 10^5,2.3 × 10^5,8.04%,89.05%
